B1: B61.Ig: chimeric protein consisting of the ligand binding domain of ephrin-A1 fused with the Fc portion of a mouse IgG antibody (protein)
chain: DRHTVFWNSSNPKFRNEDYTIHVQLNDYVDIICPHYEDHSVADAAMEQYILYLVEHEEYQLCQPQSKDQVRWQCNRPSAKHGPEKLSEKFQRFTPFTLGKEFKEGHSYYYISKPIHQHEDRCLRLKVTVSGKITHSPQAHDNPQEKRLAADDPEVRVLHSIGHS
modifications: left off: a dimerising Fc or GST

Columns and labels:
[1] = test system: peripheral blood CD4+ T cells; experiment: IL-5 ELISPOT, CD4+ T cell response to peptide-pulsed T2.DR4 cells; type: cell-based, human; conditions: one HLA-DR4+ Stage I RCC patient, pre- vs. post-surgery
[2] = test system: peripheral blood CD4+ T cells; experiment: IFN-γ ELISPOT, CD4+ T cell response to peptide-pulsed T2.DR4 cells; type: cell-based, human; conditions: for Total Responses (CD4+ T cell, responding donors/donors evaluated): HLA-DR4+ normal donors; for CD4+ T Cell Response to Peptide on T2.DR4: control peptide subtracted, 0 = <1/100,000
SLR24 tumors = experiment: Hu-SCID tumor model; type: in vivo, C.B-17 scid/scid mice
EphA2 [3] = target: T1, EphA2 (Homo sapiens, UniProt P29317); experiment: Western blot of EphA2 protein degradation in tumor cells; type: cell-based; design: PC3 (left panel) and SLR24 (right panel) cells were treated for 6 hours with either B61.Ig; endogenous in cells; host or cells: PC3 prostate carcinoma cells (A9, A10); SLR24 renal cell carcinoma cells (A10); conditions: PC3 and SLR24 cells; 6 hours; B61.Ig 30 μg/ml or mAb208 8 μg/ml
EphA2 [4] = target: T1, EphA2; experiment: EphA2 immunoprecipitation and anti-phosphotyrosine Western blot; type: cell-based; design: endogenous in cells; host or cells: PC3 prostate carcinoma cells (A9, A10); SLR24 renal cell carcinoma cells (A10); conditions: PC3 cells; B61.Ig 30 μg/ml or mAb208 8 μg/ml
Description: (§1) Western Blot Analyses. Tumor cells were grown to 80-90% confluency, serum starved overnight, then treated with agonists where indicated. In addition, resected SLR24 lesions were obtained pre- and 24 h post-intratumoral injection with B61-Ig, as outlined below. Tumor samples were analyzed for EphA2 expression via Western blots using the rabbit anti-human EphA2 polyclonal antibody (clone: C-20), Santa Cruz Biotechnology, Inc., Santa Cruz, Calif.). In some experiments, samples were also analyzed for Axl (clone C-20, Santa Cruz Biotechnology, Santa Cruz, Calif.) protein content. Single tumor cell suspensions isolated from confluent tissue culture flasks or from the enzymatic digestion of resected lesions were lysed using 500·mu·l lysis buffer (1% Triton-X, […], 10 mM Tris pH 7.4, 1 mM EDTA, 0.2 mM SOV, 0.5% NP-40) in PBS containing protease inhibitors (Complete, Roche Diagnostic, Mannheim, Germany) for 30 min at 4° C. After centrifugation at 13,500×g for 20 minutes, the supernatant was mixed 1:1 with SDS-PAGE running buffer and proteins separated on 7.5% PAGE gels, prior to electro-blotting onto nitrocellulose membranes (Millipore, Bedford, Mass.). […]

SLR24 RCC cells = experiment: IFN-γ ELISPOT, recognition of SLR24 by anti-EphA2 CTL clone CL.142; type: cell-based, human; conditions: B61.Ig 30 μg/ml overnight, relative to untreated cells
EphA2 [5] = target: T1, EphA2; experiment: Western blot of EphA2 in resected SLR24 lesions after B61-Ig; type: in vivo, C.B-17 scid/scid mice; design: resected SLR24 lesions were obtained pre- and 24 h post-intratumoral injection with B61-Ig; from tissue; host or cells: SLR24 human RCC xenograft lesions resected from C.B-17 scid/scid mice; conditions: SLR24 tumors resected 24 hours after B61-Ig
Description: as §1, with “C.” for “C. After centrifugation at 13,500×g for 20 minutes, the supernatant was mixed 1:1 with SDS-PAGE running buffer and proteins separated on 7.5% PAGE gels, prior to electro-blotting onto nitrocellulose membranes (Millipore, Bedford, Mass.).”
Hu-SCID Tumor Model. […] Animals were evaluated every 3-4 days for tumor size, with tumor-free status noted on day 40 post-tumor inoculation. […]
EphA2 Agonist Treatment Enhances the efficacy of adoptively transferred anti-EphA2 CD8^+ T Cells in a Hu-SCID Tumor Model. […] Animals were evaluated every 3-4 days for tumor size, with tumor-free status noted on day 40 post-tumor inoculation. […]

[6] = single therapy: B61-Ig 50 μg intratumoral d18 or 5×10^6 E883 T cells i.v. d19

Row | Molecule | Change in Th2-type (IL-5) CD4+ T cell response post-surgery [1] | Total Responses (CD4+ T cell, responding donors/donors evaluated) [2] | Total Responses (CD4+ T cell, responding donors/donors evaluated) ([2]; listed as EphA2663-677) | CD4+ T Cell Response to Peptide on T2.DR4 ([2]; Normal Donor DR4-1) | CD4+ T Cell Response to Peptide on T2.DR4 ([2]; Normal Donor DR4-2) | CD4+ T Cell Response to Peptide on T2.DR4 ([2]; Normal Donor DR4-3) | CD4+ T Cell Response to Peptide on T2.DR4 ([2]; Normal Donor DR4-4) | CD4+ T Cell Response to Peptide on T2.DR4 ([2]; Normal Donor DR4-5) | CD4+ T Cell Response to Peptide on T2.DR4 ([2]; Normal Donor DR4-6) | CD4+ T Cell Response to Peptide on T2.DR4 ([2]; Normal Donor DR4-7) | Change in Th1-type (IFN-γ) CD4+ T cell response post-surgery ([2]; one HLA-DR4+ Stage I RCC patient, pre- vs. post-surgery, listed as EphA2663-677) | Benefit vs. B61-Ig treatment alone (SLR24 tumors; B61-Ig combined with CD8+ T cells specific for influenza matrix58-66, data not shown) | Resolution of disease (treated mice) (SLR24 tumors; combination: B61-Ig 50 μg intratumoral d18 plus 5×10^6 E883 anti-EphA2 CD8+ T cells i.v. d19, tumor-free status day 40) | Animals cured (SLR24 tumors; [6]) | SLR24 tumor growth (SLR24 tumors; [6]) | EphA2 protein degradation (EphA2 [3]) | EphA2 phosphorylation (phosphotyrosine content) (EphA2 [4]) | CL.142 recognition of SLR24 (IFN-γ ELISPOT) (SLR24 RCC cells) | EphA2 processing/degradation in situ (EphA2 [5])
1 | EAGIMGQFSHHNHR (EAGIMGQFSHHNIIR; listed as Homo sapiens) [compound 663] | not significantly different | 6/7 | most prevalent | 21 /100,000 T cells | 57 /100,000 T cells | 14 /100,000 T cells | 0 /100,000 T cells | 41 /100,000 T cells | 67 /100,000 T cells | 72 /100,000 T cells | not significantly different | – | – | – | – | – | – | – | –
2 | B1 | – | – | – | – | – | – | – | – | – | – | – | no enhanced benefit | 5/5 | no animals were cured | delayed growth | Degradation | Induce EphA2 Phosphorylation | significantly enhanced | promoted EphA2 processing in situ
